The source of these data is ChEMBL document CHEMBL1151840, “Synthetic oligoribonucleotides containing arabinonucleotides act as agonists of TLR7 and 8” (Bioorg Med Chem Lett, 2009).

Calls of active or inactive are those of the source. No cut-off for these calls is given here.

Assay [1] relates to PBMC. The assay can be described thus: Stimulation of immune response in human PBMC assessed as induction of MIP1alpha production at 150 ug/ml after 24 hrs. The class given is functional, cell-based.
The species named for assay [2] is Homo sapiens. In words: Stimulation of immune response in human pDC assessed as induction of IFNalpha production at 150 ug/ml after 24 hrs. The class given is functional.
The test system of assay [3] is PBMC. In words: Stimulation of immune response in human PBMC assessed as induction of IL12 production at 150 ug/ml after 24 hrs. The class given is functional, cell-based.
Assay [4] deals with PBMC. The assay can be described thus: Stimulation of immune response in human PBMC assessed as induction of IFN-gamma production at 150 ug/ml after 24 hrs. The class given is functional, cell-based.
The subject of assay [5] is PBMC. In words: Stimulation of immune response in human PBMC assessed as induction of IL10 production at 150 ug/ml after 24 hrs. The class given is functional, cell-based.
The species entered for assay [6] is Homo sapiens. The assay can be described thus: Stimulation of immune response in human pDC assessed as induction of TNFalpha production at 150 ug/ml after 24 hrs. The class given is functional.
Assay [7] deals with PBMC. In words: Stimulation of immune response in human PBMC assessed as induction of IL8 production at 150 ug/ml after 24 hrs. The class given is functional, cell-based.
Assay [8] addresses T1, Toll-like receptor 7 (Homo sapiens) (UniProt Q9NYK1).
T1 sequence (whole entry): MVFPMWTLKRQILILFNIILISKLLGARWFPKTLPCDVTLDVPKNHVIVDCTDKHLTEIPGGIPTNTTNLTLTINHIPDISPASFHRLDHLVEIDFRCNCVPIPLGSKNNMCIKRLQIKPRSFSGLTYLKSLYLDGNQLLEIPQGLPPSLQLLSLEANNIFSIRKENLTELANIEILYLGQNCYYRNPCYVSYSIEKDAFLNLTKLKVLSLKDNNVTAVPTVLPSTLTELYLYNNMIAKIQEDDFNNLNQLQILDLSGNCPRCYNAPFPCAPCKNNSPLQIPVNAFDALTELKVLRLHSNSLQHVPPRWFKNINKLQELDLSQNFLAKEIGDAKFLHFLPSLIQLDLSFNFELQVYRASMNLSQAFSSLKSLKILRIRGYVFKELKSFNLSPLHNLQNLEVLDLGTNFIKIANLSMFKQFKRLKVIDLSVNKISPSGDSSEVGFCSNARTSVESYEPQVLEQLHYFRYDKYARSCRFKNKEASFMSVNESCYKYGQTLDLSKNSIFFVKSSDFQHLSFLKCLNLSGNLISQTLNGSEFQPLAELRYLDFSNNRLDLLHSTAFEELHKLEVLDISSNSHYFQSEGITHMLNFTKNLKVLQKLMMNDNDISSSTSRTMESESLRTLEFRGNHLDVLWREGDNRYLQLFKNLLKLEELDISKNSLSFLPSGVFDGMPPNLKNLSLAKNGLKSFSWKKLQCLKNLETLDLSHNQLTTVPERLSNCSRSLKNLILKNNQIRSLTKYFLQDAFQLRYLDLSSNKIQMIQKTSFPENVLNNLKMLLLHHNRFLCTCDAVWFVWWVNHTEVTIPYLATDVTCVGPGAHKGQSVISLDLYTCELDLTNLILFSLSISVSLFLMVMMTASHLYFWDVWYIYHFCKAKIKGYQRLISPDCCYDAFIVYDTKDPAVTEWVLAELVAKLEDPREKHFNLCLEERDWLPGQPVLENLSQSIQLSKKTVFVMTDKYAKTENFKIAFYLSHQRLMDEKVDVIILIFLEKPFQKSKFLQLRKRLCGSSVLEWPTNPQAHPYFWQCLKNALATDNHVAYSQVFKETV
The assay can be described thus: Agonist activity at human TLR7 expressed in HEK293XL cells assessed as NF-kappaB activation at 300 ug/ml after 18 hrs. The class given is functional, cell-based.

Assay [9] is filed under the species Homo sapiens. In words: Stimulation of immune response in human pDC assessed as induction of IFN-gamma production at 150 ug/ml after 24 hrs. The class given is functional.
Assay [10] has as its system PBMC. In words: Stimulation of immune response in human PBMC assessed as induction of TNFalpha production at 150 ug/ml after 24 hrs. The class given is functional, cell-based.
Assay [11] relates to PBMC. The assay can be described thus: Stimulation of immune response in human PBMC assessed as induction of IFNalpha production at 150 ug/ml after 24 hrs. The class given is functional, cell-based.
Assay [12] deals with PBMC. The assay can be described thus: Stimulation of immune response in human PBMC assessed as induction of MIP1beta production at 150 ug/ml after 24 hrs. The class given is functional, cell-based.
The subject of assay [13] is PBMC. In words: Stimulation of immune response in human PBMC assessed as induction of MCP1 production at 150 ug/ml after 24 hrs. The class given is functional, cell-based.
The species entered for assay [14] is Homo sapiens. In words: Stimulation of immune response in human pDC assessed as induction of MIP1beta production at 150 ug/ml after 24 hrs. The class given is functional.
Assay [15] is filed under the species Homo sapiens. In words: Stimulation of immune response in human pDC assessed as induction of MIP1alpha production at 150 ug/ml after 24 hrs. The class given is functional.
The subject of assay [16] is PBMC. In words: Stimulation of immune response in human PBMC assessed as induction of RANTES production at 150 ug/ml after 24 hrs. The class given is functional, cell-based.
The species named for assay [17] is Homo sapiens. In words: Stimulation of immune response in human pDC assessed as induction of IL12 production at 150 ug/ml after 24 hrs. The class given is functional.
Assay [18] has as its system PBMC. The assay can be described thus: Stimulation of immune response in human PBMC assessed as induction of IL1-beta production at 150 ug/ml after 24 hrs. The class given is functional, cell-based.
For assay [19], the system named is PBMC. In words: Stimulation of immune response in human PBMC assessed as induction of IL2R level at 150 ug/ml after 24 hrs. The class given is functional, cell-based.
The test system of the next assay is Mus musculus. The assay can be described thus: Stimulation of immune response in C57BL/6 mouse assessed as induction of serum IL12 production at 50 mg/kg, sc after 2 hrs by luminex multiplex assay. The class given is functional, organism-based. Also on record: dose 50 mg/kg.
For assay [20], the target named is T2, Toll-like receptor 8 (Homo sapiens) (UniProt Q9NR97).
T2 sequence (whole entry): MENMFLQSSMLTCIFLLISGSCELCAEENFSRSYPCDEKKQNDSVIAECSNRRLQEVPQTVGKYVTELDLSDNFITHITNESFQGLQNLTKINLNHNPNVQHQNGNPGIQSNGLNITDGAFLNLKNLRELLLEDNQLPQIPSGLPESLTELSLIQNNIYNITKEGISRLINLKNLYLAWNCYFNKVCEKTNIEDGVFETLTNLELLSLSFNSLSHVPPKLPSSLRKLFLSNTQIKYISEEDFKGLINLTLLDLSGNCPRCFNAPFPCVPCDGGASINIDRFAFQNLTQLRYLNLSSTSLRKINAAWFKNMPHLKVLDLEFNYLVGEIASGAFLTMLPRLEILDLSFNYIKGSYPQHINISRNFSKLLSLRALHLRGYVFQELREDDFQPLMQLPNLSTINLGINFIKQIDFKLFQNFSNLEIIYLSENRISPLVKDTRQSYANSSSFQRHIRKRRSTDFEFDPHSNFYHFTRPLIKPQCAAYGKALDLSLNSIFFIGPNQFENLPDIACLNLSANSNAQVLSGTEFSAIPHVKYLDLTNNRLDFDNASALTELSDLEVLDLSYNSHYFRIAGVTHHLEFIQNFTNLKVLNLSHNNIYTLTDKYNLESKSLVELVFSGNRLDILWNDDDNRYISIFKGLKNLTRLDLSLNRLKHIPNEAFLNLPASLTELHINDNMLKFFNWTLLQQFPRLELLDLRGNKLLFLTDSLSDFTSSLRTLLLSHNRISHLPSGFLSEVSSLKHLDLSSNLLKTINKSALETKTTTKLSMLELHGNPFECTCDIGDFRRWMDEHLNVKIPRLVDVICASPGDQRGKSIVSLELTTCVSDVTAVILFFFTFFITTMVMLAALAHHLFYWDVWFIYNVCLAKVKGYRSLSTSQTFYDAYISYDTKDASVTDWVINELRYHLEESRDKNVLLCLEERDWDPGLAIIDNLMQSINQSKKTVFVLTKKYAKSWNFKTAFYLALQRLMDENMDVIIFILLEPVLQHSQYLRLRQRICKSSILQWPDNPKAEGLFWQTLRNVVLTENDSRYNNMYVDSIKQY
The assay can be described thus: Agonist activity at human TLR8 expressed in HEK293XL cells assessed as NF-kappaB activation after 18 hrs. The class given is functional, cell-based.

For `Nc1ccn([C@@H]2O[C@H](COP(=O)(S)O[C@H]3[C@@H](O)[C@H](n4cnc5c(N)ncnc54)O[C@@H]3COP(=O)(S)O[C@H]3[C@@H](O)[C@H](n4cnc5c(=O)[nH]c(N)nc54)O[C@@H]3COP(=O)(S)O[C@H]3[C@@H](O)[C@H](n4ccc(=O)[nH]c4=O)O[C@@H]3COP(=O)(S)O[C@H]3[C@@H](O)[C@H](n4cnc5c(=O)[nH]c(N)nc54)O[C@@H]3COP(=O)(S)O[C@H]3[C@@H](O)[C@H](n4ccc(=O)[nH]c4=O)O[C@@H]3COP(=O)(S)O[C@H]3[C@@H](O)[C@H](n4cnc5c(=O)[nH]c(N)nc54)O[C@@H]3COP(=O)(S)O[C@H]3[C@@H](O)[C@H](n4ccc(=O)[nH]c4=O)O[C@@H]3COP(=O)(S)O[C@H]3[C@@H](O)[C@H](n4ccc(=O)[nH]c4=O)O[C@@H]3COP(=O)(S)O[C@H]3[C@@H](O)[C@H](n4cnc5c(=O)[nH]c(N)nc54)O[C@@H]3COP(=O)(S)O[C@H]3[C@@H](O)[C@H](n4ccc(=O)[nH]c4=O)O[C@H]3CO)[C@@H](OP(=O)(S)OCC(O)COP(=O)(S)O[C@H]3[C@@H](O)[C@H](n4ccc(N)nc4=O)O[C@@H]3COP(=O)(S)O[C@H]3[C@@H](O)[C@H](n4cnc5c(N)ncnc54)O[C@@H]3COP(=O)(S)O[C@H]3[C@@H](O)[C@H](n4cnc5c(=O)[nH]c(N)nc54)O[C@@H]3COP(=O)(S)O[C@H]3[C@@H](O)[C@H](n4ccc(=O)[nH]c4=O)O[C@@H]3COP(=O)(S)O[C@H]3[C@@H](O)[C@H](n4cnc5c(=O)[nH]c(N)nc54)O[C@@H]3COP(=O)(S)O[C@H]3[C@@H](O)[C@H](n4ccc(=O)[nH]c4=O)O[C@@H]3COP(=O)(S)O[C@H]3[C@@H](O)[C@H](n4cnc5c(=O)[nH]c(N)nc54)O[C@@H]3COP(=O)(S)O[C@H]3[C@@H](O)[C@H](n4ccc(=O)[nH]c4=O)O[C@@H]3COP(=O)(S)O[C@H]3[C@@H](O)[C@H](n4ccc(=O)[nH]c4=O)O[C@@H]3COP(=O)(S)O[C@H]3[C@@H](O)[C@H](n4cnc5c(=O)[nH]c(N)nc54)O[C@@H]3COP(=O)(S)O[C@H]3[C@@H](O)[C@H](n4ccc(=O)[nH]c4=O)O[C@@H]3CO)[C@H]2O)c(=O)n1` (stereo in doubt; 6), the outcome in the assay with PBMC [1], with PBMC [3], in the assay on PBMC [4], with PBMC [5], in the assay filed under Homo sapiens [6] and in the assay on PBMC [7] was Active. Moreover, the outcome in the assay listed under Homo sapiens [9], with PBMC [10], in the assay with PBMC [11], in the assay with PBMC [12], in the assay on PBMC [13] and in the assay filed under Homo sapiens [14] was Active. The result in the assay filed under Homo sapiens [15], with PBMC [16], in the assay listed under Homo sapiens [17], with PBMC [18] and with PBMC [19] was Active. The outcome (in the assay listed under Homo sapiens [2]; in [8]; with Mus musculus) was inactive. Also, in assay [20], the Activity entry was “Dose-dependent effect”.
